Experiments:
[1] = design: method as in PMID 19015354; settings: after intraperitoneal injection; cited from earlier work
[2] = ABTS radical cation assay
Method: The ABTS assay was based on the method described by Re et al.. For the generation of ABTS^•+ radicals, sodium persulfate (2.45 mM) aqueous solution was mixed with ABTS (7 mM) and incubated overnight in the dark to obtain a dark-colored solution. Stock solution of ABTS^•+ was then diluted by adding pure methanol (100%) to obtain an absorbance of 0.70 (±0.02) at 734 nm at 30 °C. To obtain more repetition, the ABTS assay was performed using a microplate reader (ThermoLabsystem, Finland). An aliquot of 2 µL of the tested compound (EA or analogue) was added to 198 µL of ABTS^•+, and the decrease in absorbance was monitored at 740 nm after 30 min [32]. During this reaction, the blue-green ABTS radical cation is converted back into its colorless neutral form in the presence of the potential antioxidant molecule. A control consisted of 2 µL of DMSO in 198 µL of ABTS^•+ solution. The reducing capacity was determined according to the formula:% inhibition = (Acontrol − ASample) × 100/AControl(1)

[3] = in mice; cited from earlier work
Solubility = type: physicochemical
[4] = DPPH radical scavenging assay
Method: The DPPH assay was performed according to the method developed by Brand-Williams et al., though slightly modified. A solution of 1 mM DPPH in absolute methanol was stirred for 40 min. Absorbance of the solution was adjusted to 0.650 ± 0.020 at 517 nm using fresh absolute methanol. For replicates, the DPPH assay was performed using a microplate reader. For this, 2 µL of EA taken as a standard or sample (EA analogue) were mixed with 198 µL of DPPH solution and incubated for 30 min in the dark covered with aluminum foil. When reacting with an antioxidant, the DPPH• radical is converted into DPPH, and its color changes from purple to yellow. The antioxidant effect may be easily evaluated by observing the decrease in visible absorption. The absorbance decrease was monitored at 510 nm for 30 min with a Multiskan Ascent 96-plate reader (ThermoLabsystem, Finland). A control consisted of 2 µL of DMSO in 198 µL of DPPH solution. A similar formula (Equation (1)) was applied to determine the DPPH radical-scavenging activity.

[5] = molecular target: T1, Horseradish peroxidase (HRP) (Armoracia rusticana, UniProt P00433); assay: HRP-catalyzed oxidation of L012 (chemiluminescence); type: biochemical
T1 construct: purchased Merck (Darmstadt, Germany)
T1 sequence (P00433 31-338 limits assumed): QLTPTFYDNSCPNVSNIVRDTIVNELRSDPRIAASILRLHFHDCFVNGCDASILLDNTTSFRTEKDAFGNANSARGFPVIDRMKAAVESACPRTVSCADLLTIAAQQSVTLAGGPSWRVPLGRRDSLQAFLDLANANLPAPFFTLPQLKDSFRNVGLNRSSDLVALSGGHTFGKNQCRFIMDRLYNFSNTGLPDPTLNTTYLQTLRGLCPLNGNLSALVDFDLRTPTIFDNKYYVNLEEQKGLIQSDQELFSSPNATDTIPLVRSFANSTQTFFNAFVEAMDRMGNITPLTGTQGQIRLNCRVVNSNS
Method: […] (HRP) reacts with hydrogen peroxide (H2O2), yielding “compound I (HRP^+.-Fe (IV=O))”, which is a reactive intermediate of HRP that is able to oxidize any potential reducing agent. Briefly, 2 μL of compound or reference molecule (ellagic acid) were incubated in phosphate buffer at pH 7.4 (153 μL, 50 mM) containing 5 μL HRP (100 µg/L), 20 μL L0-12 (10^−3 M), and 20 μL H2O2 (1 mM), and the chemiluminescence was immediately measured using a Fluoroskan Ascent 96-plate reader (ThermoLabsystem, Finland) at 37 °C for 30 min [32, 34]. The analysis was conducted in a 96-well microtiter plate. All the assays were performed in triplicate and repeated at least twice (N = 2; n = 6). The relative activity in terms of inhibition percentage of the tested compound or reference (ellagic acid) was compared to a control in the presence of DMSO taken as a solvent. The inhibition percentage was calculated using a similar formula (Equation (1)) as described above.

[6] = molecular target: T2, human myeloperoxidase (MPO) (Homo sapiens, UniProt P05164); assay: MPO peroxidase activity, classical assay (Amplex Red); type: biochemical; settings: concentration range 0.01 to 10 µM
T2 construct: purchased Calbiochem Millipore
T2 sequence (P05164 49-745): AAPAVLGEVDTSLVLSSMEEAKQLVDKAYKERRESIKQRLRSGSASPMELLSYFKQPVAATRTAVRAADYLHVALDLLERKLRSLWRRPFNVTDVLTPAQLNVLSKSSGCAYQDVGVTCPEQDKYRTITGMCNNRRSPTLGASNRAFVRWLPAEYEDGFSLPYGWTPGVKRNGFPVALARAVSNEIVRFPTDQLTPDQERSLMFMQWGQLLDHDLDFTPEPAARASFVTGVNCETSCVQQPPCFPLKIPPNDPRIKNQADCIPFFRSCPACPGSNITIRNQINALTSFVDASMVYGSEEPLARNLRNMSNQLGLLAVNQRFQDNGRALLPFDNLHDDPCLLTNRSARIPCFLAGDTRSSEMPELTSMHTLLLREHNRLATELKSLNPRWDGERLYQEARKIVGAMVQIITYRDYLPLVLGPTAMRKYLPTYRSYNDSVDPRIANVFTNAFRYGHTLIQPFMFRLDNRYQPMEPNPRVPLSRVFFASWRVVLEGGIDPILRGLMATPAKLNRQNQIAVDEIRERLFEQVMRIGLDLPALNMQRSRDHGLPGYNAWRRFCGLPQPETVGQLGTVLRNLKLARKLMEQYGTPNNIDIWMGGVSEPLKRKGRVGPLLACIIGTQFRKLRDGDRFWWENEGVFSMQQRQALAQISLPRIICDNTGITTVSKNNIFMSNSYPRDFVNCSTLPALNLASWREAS
Method: (§1) Measurement of the peroxidase activity of MPO was performed by a classical enzymatic assay and by SIEFED assay as described by Nyssen et al.. The MPO solution was prepared with purified human MPO in dilution buffer (PBS 20 mM at pH 7.4 with 5 g/L BSA and 0.1% Tween-20). The solutions of EA or analogue, at final concentrations ranging from 10^−8 M to 10^−5 M, were incubated for 10 min with human MPO at a final concentration of 5 mU/mL before further use. The revelation of MPO activity was performed by monitoring the enzyme-catalyzed oxidation of Amplex Red in the presence of H2O2 (10 μM) and nitrite (4.5 mM) in phosphate buffer at pH 7.4.
After incubation, mixtures containing 100 μL of EA/analogue or vehicle (DMSO) and MPO were loaded into wells of microtiter plates (transparent), and the peroxidase activity was measured by adding 10 μL sodium nitrite solution (4.5 mM, final concentration) and 100 μL of the reactional solution containing 10 µM H2O2 and 40 µM Amplex® Red (AR) in phosphate buffer (50 mM) at pH 7.4. The oxidation of AR into the fluorescent resorufin adduct (λexcitation = 544 nm; λemission = 590 nm) was monitored for 30 min at 37 °C with a fluorescent plate reader (Fluoroskan Ascent, Fisher Scientific, Hampton, NH, USA). To eliminate the possibility of the artifact reactions that might arise from MPO activity or its natural substrate (H2O2), the direct reaction of ellagic acid or an analogue with H2O2 was performed in phosphate buffer (PBS) without the addition of human MPO.

[7] = molecular target: T2, human myeloperoxidase (MPO); assay: MPO activity by SIEFED assay; type: biochemical
Method: as §1
Samples with MPO and various concentrations of […] were prepared and incubated as with the classical assay. An amount of 100 μL of each mixture (MPO alone or MPO + EA/DMSO) was then loaded into the wells of a SIEFED microtiter plate coated with rabbit polyclonal antibodies (3 μg/mL) against human MPO and incubated for 2 h at 37 °C in darkness. After washing up the wells, the activity of the enzyme captured by the antibodies was measured by adding 10 μL sodium nitrite solution (4.5 mM, final concentration) and 100 μL of a reactional solution containing 10 μM H2O2 and 40 μM Amplex® in phosphate buffer (50 mM) at pH 7.4. The oxidation of Amplex® Red into the fluorescent adduct resorufin (λexcitation = 544 nm; λemission = 590 nm) was monitored for 30 min at 37 °C with a fluorescent plate reader (Fluoroskan Ascent, Fisher Scientific). As for the MPO direct assay, a control assay set as the relative value of MPO activity was performed with purified MPO in the presence of PBS instead of the samples of EA or analogue dissolved in DMSO. In this SIEFED assay, MPO was bonded by the antibodies into the wells, and EA/analogue was discarded in the washing step before starting the measurement of the enzymatic activity. For both MPO assays, the inhibition percentage was calculated using a similar formula (Equation (1)) as described above.

Structure (SMILES) | IC50 [2] [µM] | solubility (in words) (Solubility) | IC50 [4] [µM] | HRP inhibiting activity (in words) [5] | IC50 [5] [µM] | MPO inhibition (classical assay) [6] [%] | MPO activity, SIEFED assay (in words) [7] | curative activity in vivo (in words) [1] | oral bioavailability [3] [%]
O=c1oc2c(O)c(O)cc3c(=O)oc4c(O)c(O)cc1c4c23 [1a, 2,3,7,8-Tetrahydroxy [1]benzopyrano [5,4,3-cde][1]benzopyran-5,10-dione, reference compound] | 6.01 ± 0.26 | low hydrosolubility | 5.64 ± 0.47 | strong inhibiting activity |  |  |  | curative activity in vivo | < 30
O=C(OCCCOC(=O)c1cc(O)c(O)c(O)c1)c1cc(O)c(O)c(O)c1 [compound 2] | 5.5 ± 0.16 |  | 2.86 ± 0.13 |  | 2.28 ± 0.11 |  |  |  | 
O=C(OCCCOC(=O)c1cc(O)c(O)c(O)c1)c1cc(O)cc(O)c1 [compound 3, 3-((3,5-dihydroxybenzoyl)oxy)propyl 3,4,5-trihydroxybenzoate] | 5.52 ± 0.34 |  | 5.78 ± 0.13 |  | 3.19 ± 0.07 | 98 |  |  | 
O=C(OCCOC(=O)c1cc(O)c(O)c(O)c1)c1cc(O)c(O)c(O)c1 [compound 4] | 5.77 ± 0.01 |  | 3.36 ± 0.25 |  | 2.84 |  |  |  | 
O=C(OCCCCOC(=O)c1cc(O)c(O)c(O)c1)c1cc(O)c(O)c(O)c1 [compound 8] | 6.97 ± 0.04 |  | 5.96 ± 0.06 |  | 1.48 ± 1.17 |  |  |  | 
O=C(NCCCOC(=O)c1cc(O)c(O)c(O)c1)c1cc(O)c(O)c(O)c1 [compound 9, 3-(3,4,5-trihydroxybenzamido) propyl 3,4,5-trihydroxybenzoate] | 6.34 ± 0.39 |  | 5.82 ± 0.35 |  | 1.81 ± 0.18 |  |  |  | 

The remaining compounds from weak to strong by IC50 [2], led by results:

IC50 [2] [µM] | solubility (in words) (Solubility) | IC50 [4] [µM] | HRP inhibiting activity (in words) [5] | IC50 [5] [µM] | MPO inhibition (classical assay) [6] [%] | MPO activity, SIEFED assay (in words) [7] | Structure (SMILES) | curative activity in vivo (in words) [1] | oral bioavailability [3] [%]
6.22 ± 0.16 |  | 5.27 ± 0.29 |  | 1.02 ± 0.09 |  | superior to ellagic acid | O=C(Nc1cccc(OC(=O)c2cc(O)c(O)c(O)c2)c1)c1cc(O)c(O)c(O)c1 [compound 10, 3-(3,4,5-trihydroxybenzamido)phenyl 3,4,5-trihydroxybenzoate] |  | 
6 ± 0.31 |  | 4.91 ± 0.26 |  | 5.46 ± 0.01 |  |  | O=C(OCCCOC(=O)c1cc(O)c(O)c(O)c1)c1ccccc1 [compound 13, 3-(benzoyloxy)propyl 3,4,5-trihydroxybenzoate] |  | 
5.86 ± 0.18 |  | 3.7 ± 0.45 | very good inhibition | 3.06 ± 0.07 |  |  | O=C(NCCCNC(=O)c1cc(O)c(O)c(O)c1)c1cc(O)c(O)c(O)c1 [compound 12] |  | 
5.48 ± 0.23 |  | 4.24 ± 0.36 |  | 3.73 ± 0.21 |  |  | O=C(OCCCOC(=O)c1cc(O)c(O)c(O)c1)c1ccc(O)c(O)c1 [compound 5, 3-((3,4-dihydroxybenzoyl)oxy)propyl 3,4,5-trihydroxybenzoate] |  | 
4.68 ± 0.13 |  | 3.14 ± 0.72 | reduced antioxidant effect | 5.81 ± 0.49 | 94 | superior to ellagic acid | O=C(Nc1ccc(OC(=O)c2cc(O)c(O)c(O)c2)cc1)c1cc(O)c(O)c(O)c1 [compound 7, 4-(3,4,5-trihydroxybenzamido)phenyl 3,4,5-trihydroxybenzoate] |  | 

Source: PMC10254444, “Targeting Myeloperoxidase Activity and Neutrophil ROS Production to Modulate Redox Process: Effect of Ellagic Acid and Analogues” (Molecules, 2023)
